Test results published in patent US20160159789A1, “SUBSTITUTED PYRAZOLOPYRIDINES” (BAYER PHARMA AKTIENGESELLSCHAFT, priority 2013, published 2016).

Molecular target: T1, human full-length MKNK1 (Homo sapiens, UniProt Q9BUB5, T385D)
T1 construct: purchased Carna Biosciences 02-145; host or cells: insect cells (baculovirus expression system)
Test: MKNK1 kinase high ATP assay (TR-FRET)
Assay type: biochemical
Details: high ATP (2 mM final), 15 min preincubation with enzyme, GST-MKNK1 (T344D)
Method: MKNK1-inhibitory activity at high ATP of compounds of the present invention after their preincubation with MKNK1 was quantified employing the TR-FRET-based MKNK1 high ATP assay as described in the following paragraphs.
A recombinant fusion protein of Glutathione-S-Transferase (GST, N-terminally) and human full-length MKNK1 (amino acids 1-424 and T344D of accession number BAA 19885.1), expressed in insect cells using baculovirus expression system and purified via glutathione sepharose affinity chromatography, was purchased from Carna Biosciences (product no 02-145) and used as enzyme. As substrate for the kinase reaction the biotinylated peptide biotin-Ahx-IKKRKLTRRKSLKG (C-terminus in amide form) was used, which can be purchased e.g. from the company Biosyntan (Berlin-Buch, Germany).
For the assay 50 nL of a 100 fold concentrated solution of the test compound in DMSO was pipetted into a black low volume 384 well microtiter plate (Greiner Bio-One, Frickenhausen, Germany), 2 μL of a solution of MKNK1 in aqueous assay buffer [50 mM HEPES pH 7.5, 5 mM MgCl2, 1.0 mM dithiothreitol, 0.005% (v/v) Nonidet-P40 (Sigma)] was added and the mixture was incubated for 15 min at 22° C. to allow pre-binding of the test compounds to the enzyme before the start of the kinase reaction. Then the kinase reaction was started by the addition of 3 μL of a solution of adenosine-tri-phosphate (ATP, 3.3 mM=> final conc. in the 5 μL assay volume is 2 mM) and substrate (0.1 μM=> final conc. in the 5 μL assay volume is 0.06 μM) in assay buffer and the resulting mixture was incubated for a reaction time of 30 min at 22° C. The concentration of MKNK1 was adjusted depending of the activity of the enzyme lot and was chosen appropriate to have the assay in the linear range, typical concentrations were in the range of 0.003 μg/mL. The reaction was stopped by the addition of 5 μL of a solution of TR-FRET detection reagents (5 nM streptavidine-XL665 [Cisbio Bioassays, Codolet, France] and 1 nM anti-ribosomal protein S6 (pSer236)-antibody from Invitrogen [#44921G] and 1 nM LANCE EU-W1024 labeled ProteinG [Perkin-Elmer, product no. AD0071]) in an aqueous EDTA-solution (100 mM EDTA, 0.1% (w/v) bovine serum albumin in 50 mM HEPES pH 7.5).
The resulting mixture was incubated for 1 h at 22° C. to allow the formation of complex between the phosphorylated biotinylated peptide and the detection reagents. Subsequently the amount of phosphorylated substrate was evaluated by measurement of the resonance energy transfer from the Eu-chelate to the streptavidine-XL. Therefore, the fluorescence emissions at 620 nm and 665 nm after excitation at 350 nm were measured in a TR-FRET reader, e.g. a Rubystar (BMG Labtechnologies, Offenburg, Germany) or a Viewlux (Perkin-Elmer). The ratio of the emissions at 665 nm and at […] was taken as the measure for the amount of phosphorylated substrate. The data were normalised (enzyme reaction without inhibitor=0% inhibition, all other assay components but no enzyme=100% inhibition).

T1 sequence (Q9BUB5 1-424 isoform Q9BUB5-2 T344D): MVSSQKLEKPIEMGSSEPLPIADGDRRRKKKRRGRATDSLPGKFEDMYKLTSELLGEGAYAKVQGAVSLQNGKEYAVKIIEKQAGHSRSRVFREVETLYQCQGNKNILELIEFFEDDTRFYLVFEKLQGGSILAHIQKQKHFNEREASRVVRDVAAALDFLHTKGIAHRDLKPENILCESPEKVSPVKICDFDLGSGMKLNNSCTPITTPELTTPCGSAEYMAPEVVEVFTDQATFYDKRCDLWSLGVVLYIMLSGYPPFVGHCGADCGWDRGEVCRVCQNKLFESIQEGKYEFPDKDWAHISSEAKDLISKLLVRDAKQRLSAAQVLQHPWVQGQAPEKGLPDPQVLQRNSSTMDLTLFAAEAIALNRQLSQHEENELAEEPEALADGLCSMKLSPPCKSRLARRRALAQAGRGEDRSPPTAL

IC50 | SMILES
15.8 nM | O=C([C@H]1CCc2c(sc3ncnc(Nc4cnc5[nH]ncc5c4)c23)C1)N1CC2(COC2)C1 [Example 98, 2-Oxa-6-azaspiro[3.3]hept-6-yl[(7S)-4-(1H-pyrazolo[3,4-b]pyridin-5-ylamino)-5,6,7,8-tetrahydro[1]benzothieno[2,3-d]pyrimidin-7-yl]methanone]
16.1 nM | CCCN(C)C(=O)[C@H]1CCc2c(sc3ncnc(Nc4cc5cn[nH]c5cn4)c23)C1 [Example 81, (7S)—N-Methyl-N-propyl-4-(1H-pyrazolo[3,4-c]pyridin-5-ylamino)-5,6,7,8-tetrahydro[1]benzothieno[2,3-d]pyrimidine-7-carboxamide]
59.1 nM | CN(C)C(=O)C1CCc2[nH]c3ncnc(Nc4cc5cn[nH]c5cn4)c3c2C1 (racemic) [Example 31, (RS)—N,N-Dimethyl-4-(1H-pyrazolo[3,4-c]pyridin-5-ylamino)-6,7,8,9-tetrahydro-5H-pyrimido[4,5-b]indole-6-carboxamide]
0.8 nM | COc1nc2[nH]ncc2cc1Nc1ncnc2sc3c(c12)CC[C@H](C(=O)N1C[C@@H](C)O[C@@H](C)C1)C3 [Example 36, [(2R,6S)-2,6-Dimethylmorpholin-4-yl]{(7S)-4-[(6-methoxy-1H-pyrazolo[3,4-b]pyridin-5-yl)amino]-5,6,7,8-tetrahydro[1]benzothieno[2,3-d]pyrimidin-7-yl}methanone]
28.9 nM | CCc1[nH]c2ncnc(Nc3cnc4[nH]ncc4c3)c2c1C [Example 7, N-(6-Ethyl-5-methyl-7H-pyrrolo[2,3-d]pyrimidin-4-yl)-1H-pyrazolo[3,4-b]pyridin-5-amine]
3.1 nM | CN(C)C1CCN(C(=O)[C@H]2CCc3c(sc4ncnc(Nc5cc6cn[nH]c6cn5)c34)C2)CC1 [Example 91, [4-(Dimethylamino)piperidin-1-yl][(7S)-4-(1H-pyrazolo[3,4-c]pyridin-5-ylamino)-5,6,7,8-tetrahydro[1]benzothieno[2,3-d]pyrimidin-7-yl]methanone]
9.7 nM | O=C([C@H]1CCc2c(sc3ncnc(Nc4cc5cn[nH]c5cn4)c23)C1)N1CCC1 [Example 55, Azetidin-1-yl[(7S)-4-(1H-pyrazolo[3,4-c]pyridin-5-ylamino)-5,6,7,8-tetrahydro[1]benzothieno[2,3-d]pyrimidin-7-yl]methanone]
15 nM | COCCN(C)C(=O)[C@H]1CCc2c(sc3ncnc(Nc4cc5cn[nH]c5cn4)c23)C1 [Example 57, (7S)—N-(2-Methoxyethyl)-N-methyl-4-(1H-pyrazolo[3,4-c]pyridin-5-ylamino)-5,6,7,8-tetrahydro[1]benzothieno[2,3-d]pyrimidine-7-carboxamide]
23.8 nM | c1nc(Nc2cc3cn[nH]c3cn2)c2cc[nH]c2n1 [Example 2, N-(7H-Pyrrolo[2,3-d]pyrimidin-4-yl)-1H-pyrazolo[3,4-c]pyridin-5-amine]
13.5 nM | CCCN(C)C(=O)[C@H]1CCc2c(sc3ncnc(Nc4cnc5[nH]ncc5c4)c23)C1 [Example 93, (7S)—N-Methyl-N-propyl-4-(1H-pyrazolo[3,4-b]pyridin-5-ylamino)-5,6,7,8-tetrahydro[1]benzothieno[2,3-d]pyrimidine-7-carboxamide]

More lines, now with the values behind:

SMILES | IC50
CCN(C)C(=O)[C@H]1CCc2c(sc3ncnc(Nc4cc5cn[nH]c5nc4OC)c23)C1 [Example 39, (7S)—N-Ethyl-4-[(6-methoxy-1H-pyrazolo[3,4-b]pyridin-5-yl)amino]-N-methyl-5,6,7,8-tetrahydro[1]benzothieno[2,3-d]pyrimidine-7-carboxamide] | 1 nM
COc1nc2[nH]ncc2cc1Nc1ncnc2sc3c(c12)CC[C@H](C(=O)N1CC(C#N)C1)C3 [Example 108, 1-({(7S)-4-[(6-Methoxy-1H-pyrazolo[3,4-b]pyridin-5-yl)amino]-5,6,7,8-tetrahydro[1]benzothieno[2,3-d]pyrimidin-7-yl}carbonyl)azetidine-3-carbonitrile] | 0.7 nM
COc1nc2[nH]ncc2cc1Nc1ncnc2sc3c(c12)CC[C@H](C(=O)N(C)CCC(F)(F)F)C3 [Example 136, (7S)-4-[(6-Methoxy-1H-pyrazolo[3,4-b]pyridin-5-yl)amino]-N-methyl-N-(3,3,3-trifluoropropyl)-5,6,7,8-tetrahydro[1]benzothieno[2,3-d]pyrimidine-7-carboxamide] | 0.5 nM
CN(C)C1CCN(C(=O)[C@H]2CCc3c(sc4ncnc(Nc5cc6cn[nH]c6nc5O)c34)C2)CC1 [Example 117, [4-(Dimethylamino)piperidin-1-yl]{(7S)-4-[(6-hydroxy-1H-pyrazolo[3,4-b]pyridin-5-yl)amino]-5,6,7,8-tetrahydro[1]benzothieno[2,3-d]pyrimidin-7-yl}methanone] | 1.4 nM
CCOC(=O)c1cc2c(Nc3cnc4[nH]ncc4c3)ncnc2[nH]1 [Example 9, Ethyl 4-(1H-pyrazolo[3,4-b]pyridin-5-ylamino)-7H-pyrrolo[2,3-d]pyrimidine-6-carboxylate] | 3 nM
C[C@@H]1COCCN1C(=O)[C@H]1CCc2c(sc3ncnc(Nc4cc5cn[nH]c5cn4)c23)C1 [Example 88, [(3R)-3-Methylmorpholin-4-yl][(7S)-4-(1H-pyrazolo[3,4-c]pyridin-5-ylamino)-5,6,7,8-tetrahydro[1]benzothieno[2,3-d]pyrimidin-7-yl]methanone] | 8 nM
O=C(c1cc2c(Nc3cc4cn[nH]c4cn3)ncnc2[nH]1)N1CCCCC1 [Example 20, Piperidin-1-yl[4-(1H-pyrazolo[3,4-c]pyridin-5-ylamino)-7H-pyrrolo[2,3-d]pyrimidin-6-yl]methanone] | 7.8 nM
COc1nc2[nH]ncc2cc1Nc1ncnc2[nH]c(C(=O)N3CCOCC3)c(Br)c12 [Example 67, {5-Bromo-4-[(6-methoxy-1H-pyrazolo[3,4-b]pyridin-5-yl)amino]-7H-pyrrolo[2,3-d]pyrimidin-6-yl}(morpholin-4-yl)methanone] | 15.2 nM
COc1nc2[nH]ncc2cc1Nc1ncnc2[nH]c(C(=O)N(C)CCN(C)C)c(Br)c12 [Example 62, 5-Bromo-N-[2-(dimethylamino)ethyl]-4-[(6-methoxy-1H-pyrazolo[3,4-b]pyridin-5-yl)amino]-N-methyl-7H-pyrrolo[2,3-d]pyrimidine-6-carboxamide] | 12 nM
CN(C)C(=O)C1CCc2c(sc3ncnc(Nc4cc5cn[nH]c5cn4)c23)C1 (racemic) [Example 28, (RS)—N,N-Dimethyl-4-(1H-pyrazolo[3,4-c]pyridin-5-ylamino)-5,6,7,8-tetrahydro[1]benzothieno[2,3-d]pyrimidine-7-carboxamide] | 9.8 nM
CN(C)C(=O)C1CCc2c(sc3ncnc(Nc4cnc5[nH]ncc5c4)c23)C1 (racemic) [Example 27, (RS)—N,N-Dimethyl-4-(1H-pyrazolo[3,4-b]pyridin-5-ylamino)-5,6,7,8-tetrahydro[1]benzothieno[2,3-d]pyrimidine-7-carboxamide] | 20.3 nM
COc1nc2[nH]ncc2cc1Nc1ncnc2sc3c(c12)CC[C@H](C(=O)N(C)C(C)C)C3 [Example 37, (7S)-4-[(6-Methoxy-1H-pyrazolo[3,4-b]pyridin-5-yl)amino]-N-methyl-N-(propan-2-yl)-5,6,7,8-tetrahydro[1]benzothieno[2,3-d]pyrimidine-7-carboxamide] | 4.2 nM
CN(C)C(=O)C1CCc2[nH]c3ncnc(Nc4cnc5[nH]ncc5c4)c3c2C1 (racemic) [Example 30, (RS)—N,N-Dimethyl-4-(1H-pyrazolo[3,4-b]pyridin-5-ylamino)-6,7,8,9-tetrahydro-5H-pyrimido[4,5-b]indole-6-carboxamide] | 50.7 nM
C[C@@H]1COCCN1C(=O)[C@H]1CCc2c(sc3ncnc(Nc4cnc5[nH]ncc5c4)c23)C1 [Example 103, [(3R)-3-Methylmorpholin-4-yl][(7S)-4-(1H-pyrazolo[3,4-b]pyridin-5-ylamino)-5,6,7,8-tetrahydro[1]benzothieno[2,3-d]pyrimidin-7-yl]methanone] | 35.8 nM
CCc1c[nH]c2ncnc(Nc3cnc4[nH]ncc4c3)c12 [Example 5, N-(5-Ethyl-7H-pyrrolo[2,3-d]pyrimidin-4-yl)-1H-pyrazolo[3,4-b]pyridin-5-amine] | 12.2 nM
